Source: US20230091225A1, “Bifunctional chimeric heterocyclic compounds for targeted degradation of androgen receptors and use thereof” (HINOVA PHARMACEUTICALS INC., priority 2019, published 2023)
Like-named read-outs stand apart in the source and are kept apart here.

What was measured:
Type in all cases: cell-based
androgen receptor (AR) [1] = biological target: T1, androgen receptor (AR) (Homo sapiens, UniProt P10275); assay: Degradation of androgen receptor (AR) protein in VCaP cells by Western blot; settings: percentage of degraded AR at 100 nM, VCaP cells, 16 h
T1 sequence (P10275 1-920): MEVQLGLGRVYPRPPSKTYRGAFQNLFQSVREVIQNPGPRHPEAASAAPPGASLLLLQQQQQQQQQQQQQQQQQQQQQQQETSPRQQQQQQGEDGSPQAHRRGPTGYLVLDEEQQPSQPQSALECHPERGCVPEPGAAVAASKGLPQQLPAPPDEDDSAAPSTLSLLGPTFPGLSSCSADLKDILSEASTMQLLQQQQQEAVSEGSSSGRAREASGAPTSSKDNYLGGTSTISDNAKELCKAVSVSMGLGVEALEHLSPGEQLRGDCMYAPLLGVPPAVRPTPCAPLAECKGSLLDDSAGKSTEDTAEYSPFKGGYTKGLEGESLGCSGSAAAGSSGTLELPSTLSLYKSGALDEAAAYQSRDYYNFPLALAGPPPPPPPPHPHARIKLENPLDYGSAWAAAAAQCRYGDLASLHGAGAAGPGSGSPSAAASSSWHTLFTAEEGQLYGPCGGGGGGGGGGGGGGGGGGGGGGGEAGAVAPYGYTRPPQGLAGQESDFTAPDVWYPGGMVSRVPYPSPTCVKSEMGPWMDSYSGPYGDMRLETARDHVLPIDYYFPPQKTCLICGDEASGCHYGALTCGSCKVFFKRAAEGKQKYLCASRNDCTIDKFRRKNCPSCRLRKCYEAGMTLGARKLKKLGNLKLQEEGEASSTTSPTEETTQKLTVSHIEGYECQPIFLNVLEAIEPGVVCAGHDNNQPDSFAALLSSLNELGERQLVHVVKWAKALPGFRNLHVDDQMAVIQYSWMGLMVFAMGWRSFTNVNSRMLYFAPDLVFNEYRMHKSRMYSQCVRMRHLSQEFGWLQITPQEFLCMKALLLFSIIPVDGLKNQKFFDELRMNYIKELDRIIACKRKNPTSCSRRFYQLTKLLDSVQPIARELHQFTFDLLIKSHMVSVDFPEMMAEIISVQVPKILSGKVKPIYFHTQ
How it was run: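 AR and β-actin levels were read by Western blot with ECL detection, loading 30 μg lysate protein per well. Before lysis, VCaP cells seeded at 5×10^5/well and grown overnight were exposed to compound for 16 h, two wells per concentration, keeping DMSO at 0.1%.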

androgen receptor (AR) [2] = biological target: T1, androgen receptor (AR); assay: Degradation of androgen receptor (AR) protein in VCaP cells by ELISA
LNCaP/AR cells = assay: Inhibition of proliferation of LNCaP/AR prostate cancer cells (CCK-8)
[3] = 144 h, proliferation of LNCap/AR cells, 6 days, CCK-8, read-out: IC50
[4] = proliferation of LNCap/AR cells, 6 days, CCK-8, read-out: IC50

Molecule | inhibition at 0.1 µM (androgen receptor (AR) [1]) | IC50 (LNCaP/AR cells; [3]) | also measured
N#Cc1ccc(O[C@H]2CC[C@H](N3Cc4nc(N5CCC(OC6CCN(c7cccc8c7C(=O)N(C7CCC(=O)NC7=O)C8=O)CC6)CC5)ccc4C3=O)CC2)cc1Cl (stereo partly drawn) [Compound 59, 2-chloro-4-(((1r,4r)-4-(2-(4-((1-(2-(2,6-dioxopiperidin-3-yl)-1,3-dioxoisoindolin-4-yl)piperidine-4-yl)oxy)piperidin-1-yl)-5-oxo-5H-pyrrolo[3,4-b]pyridin-6(7H)-yl)cyclohexyl)oxy)benzonitrile] | < 25% | > 1000 nM | inhibition at 0.1 µM (androgen receptor (AR) [2]; percentage of degraded AR at 100 nM, VCaP cells, 16 h, ELISA, read-out: % degradation): < 25%
CC1(C)[C@H](Oc2ccc(C#N)c(Cl)c2)C(C)(C)[C@H]1N1Cc2nc(N3CCC(CN4CCN(c5cc6c(cc5F)CN(C5CCC(=O)NC5=O)C6=O)CC4)CC3)ccc2C1=O (stereo partly drawn) [Compound 205] | < 25% | < 100 nM | 
CC1(C)C(Oc2ccc(C#N)c(Cl)c2)C(C)(C)C1N1Cc2nc(N3CCC(CN4CCN(c5cc6c(cc5F)CN([C@@H]5CCC(=O)NC5=O)C6=O)CC4)CC3)ccc2C1=O (stereo partly drawn) [Compound 211] |  |  | % degradation (androgen receptor (AR) [1]): D (<25%); IC50 (LNCaP/AR cells; [4]): 100 to 500 nM
CC1(C)[C@H](NC(=O)c2ccc(N3CCC(CN4CCN(c5cc6c(cc5F)CN(C5CCC(=O)NC5=O)C6=O)CC4)CC3)nc2)C(C)(C)[C@H]1Oc1ccc(C#N)c(Cl)c1 (stereo partly drawn) [Compound 214] | 50 to 79% | < 100 nM | 
N#Cc1ccc(OC2C[C@@H]3CN(C(=O)c4ccc(N5CCC(CN6CCN(c7ccc8c(c7)C(=O)N(C7CCC(=O)NC7=O)C8=O)CC6)CC5)nn4)C[C@@H]3C2)cc1Cl (stereo partly drawn) [Compound 218] | < 25% | > 1000 nM | 
N#Cc1ccc(O[C@H]2CC[C@H](NC(=O)c3ccc(N4CCC(NC5CCN(c6cc7c(cc6F)C(=O)N(C6CCC(=O)NC6=O)C7=O)CC5)CC4)cc3)CC2)cc1Cl (stereo partly drawn) [Compound 219, N-((1r,4r)-4-(3-chloro-4-cyanophenoxy)cyclohexyl)-4-(4-((1-(2-(2,6-dioxopiperidin-3-yl)-6-fluoro-1,3-dioxoisoindolin-5-yl)piperidine-4-yl)amino)piperidin-1-yl)benzamide] | 25 to 49% |  | IC50 (LNCaP/AR cells; LNCaP/AR, 144 h): 500 to 1000 nM
CC1(C)[C@H](Oc2ccc(C#N)c(Cl)c2)C(C)(C)[C@H]1N1Cc2cc(N3CCC(CN4CCN(c5ccc6c(c5)CN(C5CCC(=O)NC5=O)C6=O)CC4)CC3)ccc2C1=O (stereo partly drawn) [Compound 248] | < 25% |  | IC50 (LNCaP/AR cells; LNCaP/AR, 144 h): 100 to 500 nM
CC1(C)[C@H](Oc2ccc(C#N)c(Cl)c2)C(C)(C)[C@H]1N1Cc2cc(N3CCC(CN4CCN(c5ccc6c(c5)C(=O)N(C5CCC(=O)NC5=O)C6=O)CC4)CC3)ccc2C1=O (stereo partly drawn) [Compound 249] | < 25% | 100 to 500 nM | 
CC1(C)[C@H](Oc2ccc(C#N)c(Cl)c2)C(C)(C)[C@H]1N1Cc2cc(N3CCC(CN4CCN(c5cc6c(cc5F)CN([C@@H]5CCC(=O)NC5=O)C6=O)CC4)CC3)ccc2C1=O [Compound 250] |  |  | % degradation (androgen receptor (AR) [1]): D (<25%); % degradation (androgen receptor (AR) [2]): D (key: A: >80%; B: 79%-50%; C: 49%-25%; D: <25%); IC50 (LNCaP/AR cells; [4]): 100 to 500 nM
CC1(C)[C@H](Oc2ccc(C#N)c(Cl)c2)C(C)(C)[C@H]1N1Cc2cc(N3CCC(CN4CCN(c5cc6c(cc5F)C(=O)N(C5CCC(=O)NC5=O)C6)CC4)CC3)ccc2C1=O (stereo partly drawn) [Compound 251] | 25 to 49% | 100 to 500 nM | 
(2S,4R)-1-((S)-2-(4-(4-((2-((1r,3r)-3-(3-chloro-4-cyanophenoxy)-2,2,4,4-tetramethylcyclobutyl)-1-oxoisoindolin-5-yl)ethynyl)-1H-pyrazol-1-yl)butylamino)-3,3-dimethylbutanol)-4-hydroxy-N-((S)-1-(4-methylthiazol-5-yl)phenyl)ethyl)pyrrolidine-2-carboxamide [Compound 35] |  |  | % degradation (androgen receptor (AR) [2]): B (key: A: >80%; B: 79%-50%; C: 49%-25%; D: <25%); IC50 (LNCaP/AR cells; [4]): < 100 nM
